pEC50, pKd: −log10 of the molar value.
How the values were obtained:
[1] = target: human HAQ isoform of STING (Homo sapiens (Human), UniProt Q86WV6, G230A/H232R/R293Q/R71H); assay: THP-1 STING Lucia ISG reporter cell line assay; type: cell-based; details: 24 h incubation, luminescence, normalized to ML RR-S2 CDA 40 μM; read-out: EC50 THP-I STING Lucia ISG cells
Procedure: (§1) THP-1 STING Lucia ISG cells (InvivoGen #thpl-isg) were cultured in RPMI-1640 containing 2 mM L-glutamine, 25 mM HEPES, 100 μg/mL Normocin (InvivoGen) and 10% heat-inactivated FBS. Cells were seeded at a density of 7×10^5 cells/mL, maintained at 37° C./5% CO2, and passaged every 3-4 days. Selection pressure was maintained by the addition of 100 μg/mL Zeocin every second passage.
(§2) Assay conditions: cells were harvested and resuspended at a concentration of 5×10^5 cells/mL in fresh growth media. Of this cell preparation 20 μL per well was dispensed into 384 well cell culture plates (Greiner, #781098X) and incubated at 37° C./5% CO2 for 2 hours.
(§3) Concentration Response Curves (commonly 11 doses) were prepared by 2.5 fold serial dilution starting from 10 mM compound stock solution in DMSO. Compound dilutions were transferred into the cell culture plates using a pintool (0.1 μL transfer), control wells were matched for DMSO. Positive control wells received ML RR-S2 CDA (Med Chem Express HY12885B) in 5 μL of media to a final concentration of 40 μM. All other wells received additional 5 μL of media only to equalize volume. The plates were incubated for 24 h at 37° C./5% CO2.
(§4) For the detection step, QUANTI-Luc (InvivoGen #rep-qlc1) was prepared according to manufacturer's instruction and 10 μL were added per well to the culture plates. Plates were shaken for ten seconds on an orbital shaker and left in the dark at room temperature for two minutes, before luminescence was read on a Perkin Elmer Envision plate reader.
(§5) Data analysis: Luminescence raw data was normalized % activity relative to the signal of the positive control wells and negative control wells which were not treated with compound. The following formula was used to calculate normalized % activity from raw signals: % activity=(sample−negative)/(positive−negative)
(§6) The THP-1 STING Lucia ISG cell EC50 provides an assessment of activity at the human HAQ isoform of STING. For assessing compound activity against the WT human STING isoform, an equivalent method was conducted where the cells used were THP-1-Dual KI-hSTING-R232 (InvivoGen #thpd-r232).

[2] = target: WT human STING isoform (Homo sapiens (Human), UniProt Q86WV6, H232R); assay: THP-1-Dual KI-hSTING-R232 reporter cell line assay; type: cell-based; details: 24 h incubation, luminescence, normalized to ML RR-S2 CDA 40 μM; read-out: EC50 THP-1 Dual KI-hSTING-R232 cells
Procedure: as §1, §2, §3, §4, §5, §6

[3] = target: T1, human STING (WT) (Homo sapiens (Human), UniProt Q86WV6, H232R); assay: Surface Plasmon Resonance (SPR), STING (WT); details: read-out: SPR (WT) KD; biotinylated STING on streptavidin chip, 8° C.
[4] = target: T1, human STING (WT); assay: Differential scanning fluorimetry (DSF), huSTING (WT); type: binding; details: compound 100 μM, 2 μM protein, Tm with ligand minus Tm of protein alone (1% DMSO)
Procedure: (§7) Data were analyzed using “Meltdown analysis” protocol described by Rosa (2015).

[5] = target: T2, human STING (HAQ) (Homo sapiens (Human), UniProt Q86WV6, G230A/H232R/R293Q); assay: Differential scanning fluorimetry (DSF), huSTING (HAQ); type: binding; details: compound 100 μM, 2 μM protein, Tm with ligand minus Tm of protein alone (1% DMSO)
Procedure: as §7

[6] = target: T2, human STING (HAQ); assay: Surface Plasmon Resonance (SPR), STING (HAQ); details: read-out: SPR (HAQ) KD; biotinylated STING on streptavidin chip, 8° C.
[7] = target: T2, human STING (HAQ); assay: biochemical
[8] = target: T1, human STING (WT); assay: biochemical

T2 sequence (Q86WV6 149-345 G230A/H232R/R293Q): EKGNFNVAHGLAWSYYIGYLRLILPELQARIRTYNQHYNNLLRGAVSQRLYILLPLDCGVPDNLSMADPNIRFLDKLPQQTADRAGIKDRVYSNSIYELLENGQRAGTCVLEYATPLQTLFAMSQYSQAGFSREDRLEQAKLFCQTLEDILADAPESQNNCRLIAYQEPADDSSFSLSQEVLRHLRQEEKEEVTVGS
Sequence of human HAQ isoform of STING (Q86WV6 whole entry R71H/G230A/H232R/R293Q, canonical isoform): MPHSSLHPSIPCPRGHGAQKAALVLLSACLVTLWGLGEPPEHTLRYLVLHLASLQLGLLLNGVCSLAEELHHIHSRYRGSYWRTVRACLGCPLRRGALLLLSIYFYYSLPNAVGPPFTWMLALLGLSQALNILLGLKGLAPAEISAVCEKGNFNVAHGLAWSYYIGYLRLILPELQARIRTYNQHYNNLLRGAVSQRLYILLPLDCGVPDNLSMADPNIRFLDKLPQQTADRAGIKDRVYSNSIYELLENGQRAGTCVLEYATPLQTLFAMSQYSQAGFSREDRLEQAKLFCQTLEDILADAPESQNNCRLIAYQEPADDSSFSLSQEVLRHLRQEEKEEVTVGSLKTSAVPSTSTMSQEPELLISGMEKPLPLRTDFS
Sequence of WT human STING isoform (Q86WV6 whole entry H232R, canonical isoform): as the sequence (Q86WV6 whole entry R71H/G230A/H232R/R293Q, canonical isoform) above, with H71R, A230G, Q293R counted along it
T1 sequence (Q86WV6 149-345 H232R): as the sequence (Q86WV6 149-345 G230A/H232R/R293Q) above, with A82G, Q145R counted along it

For `NC(=O)c1ccc2c(c1)nc(-c1c(C(=O)O)sc3cccc(Cl)c13)n2CCn1c(-c2c(C(=O)O)sc3cccc(Cl)c23)nc2cc(C(N)=O)ccc21` (single isomer, unassigned) [Example 1.1, 3,3′-(Ethane-1,2-diylbis(5-carbamoyl-1H-benzo[d]imidazole-1,2-diyl))bis(4-chlorobenzo[b]thiophene-2-carboxylic acid)], the pEC50 [1] was 6.17, the pEC50 [2] was 6.57 and the pKd [3] was 6.92. For the same molecule, the “DSF huSTING (WT) ΔTm” value [4] was 19.9 °C, the “DSF huSTING (HAQ) ΔTm” value [5] was 31.8 °C and the pKd [6] was 8.77.

For `NC(=O)c1ccc2c(c1)nc(-c1c(C(=O)O)sc3c(F)ccc(Cl)c13)n2CCn1c(-c2c(C(=O)O)sc3c(F)ccc(Cl)c23)nc2cc(C(N)=O)ccc21` (single isomer, unassigned) [Example 2.1, 3,3′-(Ethane-1,2-diylbis(5-carbamoyl-1H-benzo[d]imidazole-1,2-diyl))bis(4-chloro-7-fluorobenzo[b]thiophene-2-carboxylic acid)], the pEC50 [1] was 5.74, the pEC50 [2] was 6.29 and the pKd [3] was 7.51. For the same molecule, the “DSF huSTING (WT) ΔTm” value [4] was 21 °C, the ΔTm at 100 µM [5] was 32 °C and the pKd [6] was 8.13.

`NC(=O)c1ccc2c(c1)nc(-c1c(C(=O)O)sc3cccc(Cl)c13)n2CCCn1c(-c2c(C(=O)O)sc3cccc(Cl)c23)nc2cc(C(N)=O)ccc21` (single isomer, unassigned) [Example 4.1, 3,3′-(Propane-1,3-diylbis(5-carbamoyl-1H-benzo[d]imidazole-1,2-diyl))bis(4-chlorobenzo[b]thiophene-2-carboxylic acid)] was tested, and the pEC50 [1] was under 4.40, the pEC50 [2] was under 4.40 and the pKd [3] was 3.30. For the same molecule, the “DSF huSTING (WT) ΔTm” value [4] was −0.82 °C, the “DSF huSTING (HAQ) ΔTm” value [5] was 2.85 °C and the pKd [6] was 4.45.

`NC(=O)c1ccc2c(c1)nc(-c1c(C(=O)O)sc3cccc(Cl)c13)n2CCCn1c(-c2c(C(=O)O)sc3cccc(Cl)c23)nc2cc(C(N)=O)ccc21` (single isomer, unassigned) [Example 4.2, 3,3′-(Propane-1,3-diylbis(5-carbamoyl-1H-benzo[d]imidazole-1,2-diyl))bis(4-chlorobenzo[b]thiophene-2-carboxylic acid)] gave a pEC50 [1] of under 4.40, a pKd [7] of 4.78 and a pEC50 [2] of 4.72. The pKd [8] was 4.64, the “DSF huSTING (WT) ΔTm” value [4] was −0.76 °C and the ΔTm at 100 µM [5] was 4.56 °C.

In the case of `COc1cccc2sc(C(=O)O)c(-c3nc4cc(C(N)=O)ccc4n3CCn3c(-c4c(C(=O)O)sc5cccc(OC)c45)nc4cc(C(N)=O)ccc43)c12` (single isomer, unassigned) [Example 5.1, 3,3′-(Ethane-1,2-diylbis(5-carbamoyl-1H-benzo[d]imidazole-1,2-diyl))bis(4-methoxybenzo[b]thiophene-2-carboxylic acid)], the pEC50 [1] was under 4.40, the pEC50 [2] was 4.87 and the pKd [3] was 6.16. For the same molecule, the “DSF huSTING (WT) ΔTm” value [4] was 6.4 °C, the “DSF huSTING (HAQ) ΔTm” value [5] was 23.59 °C and the pKd [6] was 7.68.

`COc1cccc2sc(C(=O)O)c(-c3nc4cc(C(N)=O)ccc4n3CCn3c(-c4c(C(=O)O)sc5cccc(OC)c45)nc4cc(C(N)=O)ccc43)c12` (single isomer, unassigned) [Example 5.2, 3,3′-(Ethane-1,2-diylbis(5-carbamoyl-1H-benzo[d]imidazole-1,2-diyl))bis(4-methoxybenzo[b]thiophene-2-carboxylic acid)] was tested, and the pEC50 [1] was 5.78, the pEC50 [2] was 6.31 and the pKd [3] was 6.91. For the same molecule, the “DSF huSTING (WT) ΔTm” value [4] was 19.17 °C, the ΔTm at 100 µM [5] was 30.9 °C and the pKd [6] was 8.85.

`NC(=O)c1ccc2c(c1)nc(-c1c(C(=O)O)sc3cccc(Br)c13)n2CCn1c(-c2c(C(=O)O)sc3cccc(Br)c23)nc2cc(C(N)=O)ccc21` (single isomer, unassigned) [Example 11.1, 3,3′-(Ethane-1,2-diylbis(5-carbamoyl-1H-benzo[d]imidazole-1,2-diyl))bis(4-bromobenzo[b]thiophene-2-carboxylic acid)] gave a pEC50 [1] of 6.74, a pEC50 [2] of 6.76 and a pKd [3] of 7.20. For the same molecule, the “DSF huSTING (WT) ΔTm” value [4] was 17.83 °C, the “DSF huSTING (HAQ) ΔTm” value [5] was 31.05 °C and the pKd [6] was 8.79.

Molecule `COc1ccc(F)c2sc(C(=O)O)c(-c3nc4cc(C(N)=O)ccc4n3CCn3c(-c4c(C(=O)O)sc5c(F)ccc(OC)c45)nc4cc(C(N)=O)ccc43)c12` (single isomer, unassigned) [Example 13.1, 3,3′-(Ethane-1,2-diylbis(5-carbamoyl-1H-benzo[d]imidazole-1,2-diyl))bis(7-fluoro-4-methoxybenzo[b]thiophene-2-carboxylic acid)] has a pEC50 [1] of 5.08, a pEC50 [2] of 5.43 and a pKd [3] of 6.52. For the same molecule, the “DSF huSTING (WT) ΔTm” value [4] was 18.17 °C, the “DSF huSTING (HAQ) ΔTm” value [5] was 31.23 °C and the pKd [6] was 8.40.

Molecule `Cc1cccc2sc(C(=O)O)c(-c3nc4cc(C(N)=O)ccc4n3CCn3c(-c4c(C(=O)O)sc5cccc(C)c45)nc4cc(C(N)=O)ccc43)c12` (single isomer, unassigned) [Example 15.2, 3,3′-(Ethane-1,2-diylbis(5-carbamoyl-1H-benzo[d]imidazole-1,2-diyl))bis(4-methylbenzo[b]thiophene-2-carboxylic acid)] has a pEC50 [1] of 6.57, a pEC50 [2] of 6.70 and a pKd [3] of 6.72. For the same molecule, the “DSF huSTING (WT) ΔTm” value [4] was 20.41 °C, the “DSF huSTING (HAQ) ΔTm” value [5] was 31.87 °C and the pKd [6] was 8.30.

`NC(=O)c1ccc2c(c1)nc(-c1c(C(=O)O)sc3c(F)ccc(Br)c13)n2CCn1c(-c2c(C(=O)O)sc3c(F)ccc(Br)c23)nc2cc(C(N)=O)ccc21` (single isomer, unassigned) [Example 20.1, 3,3′-(Ethane-1,2-diylbis(5-carbamoyl-1H-benzo[d]imidazole-1,2-diyl))bis(4-bromo-7-fluorobenzo[b]thiophene-2-carboxylic acid)] was tested, and the pEC50 [1] was 5.80, the pEC50 [2] was 6.20 and the pKd [3] was 7.80. For the same molecule, the “DSF huSTING (WT) ΔTm” value [4] was 22.71 °C, the “DSF huSTING (HAQ) ΔTm” value [5] was 31.76 °C and the pKd [6] was 8.78.

`NC(=O)c1ccc2c(c1)nc(-c1c(C(=O)O)sc3cccc(Cl)c13)n2CCCCn1c(-c2c(C(=O)O)sc3cccc(Cl)c23)nc2cc(C(N)=O)ccc21` [Example 3, 3,3′-(Butane-1,4-diylbis(5-carbamoyl-1H-benzo[d]imidazole-1,2-diyl))bis(4-chlorobenzo[b]thiophene-2-carboxylic acid)] was tested, and the pEC50 [1] was under 4.40, the pEC50 [2] was under 4.40 and the pKd [3] was 5.20. For the same molecule, the ΔTm at 100 µM [4] was -1.83 °C, the ΔTm at 100 µM [5] was -0.55 °C and the pKd [6] was 5.30.

In the case of `COc1nccc2sc(C(=O)O)c(-c3nc4cc(C(N)=O)ccc4n3CCn3c(-c4c(C(=O)O)sc5ccnc(OC)c45)nc4cc(C(N)=O)ccc43)c12` [Example 7, 3,3′-(Ethane-1,2-diylbis(5-carbamoyl-1H-benzo[d]imidazole-1,2-diyl))bis(4-methoxythieno[3,2-c]pyridine-2-carboxylic acid)], the pEC50 [1] was under 4.40, the pEC50 [2] was 5.12 and the pKd [3] was 4.10. It also gave a ΔTm at 100 µM [4] of 0.6 °C, a ΔTm at 100 µM [5] of 6.96 °C and a pKd [6] of 4.55.

Work on `CCOC(=O)c1sc2cccc(Cl)c2c1-c1nc2cc(C(N)=O)ccc2n1CCn1c(-c2c(C(=O)OCC)sc3cccc(Cl)c23)nc2cc(C(N)=O)ccc21` [Example A1, Diethyl 3,3′-(ethane-1,2-diylbis(5-carbamoyl-1H-benzo[d]imidazole-1,2-diyl))bis(4-chlorobenzo[b]thiophene-2-carboxylate)] yielded a pEC50 [1] of 4.74, a pEC50 [2] of 4.92 and a pKd [3] of 4.80. It also gave a ΔTm at 100 µM [4] of 1.84 °C, a ΔTm at 100 µM [5] of 0.36 °C and a pKd [6] of 4.83.

From patent US12384801B2, “Benzothiophene, thienopyridine and thienopyrimidine derivatives for the modulation of sting” (CTXT PTY LTD, priority 2019, dated 2025)
